In patent US4800211A, “5-methylthio-3-hydroxybenzo [b]thiophene-2-carboxamide derivatives as cyclooxygenase and lipoxygenase inhibitors” (Merck & Co., Inc., priority 1986, dated 1989):
Where two headings read alike, the source gives them in different places.

Tests used:
PAF-induced hyperalgesia = assay: Platelet Activating Factor-Induced Hyperalgesia in the Rat; type: in vivo, rat (female Sprague-Dawley); conditions: for % Analgesia (percentage of animals with vocalization threshold greater than 200 of vehicle-treated controls): Table 1, 30 min before PAF, readings 3 hours after PAF; for effect in the PAF-induced hyperalgesia assay (in words): pain response to PAF, rat
Procedure: In this assay, which is sensitive to inhibition by lipoxygenase inhibitors, but not cyclooxygenase inhibitors, compounds of formula (I) reduced the pain response to PAF (Table 1).
Groups of 10 female Sprague-Dawley rats, 35-50 g (Taconic Farms), were fasted overnight prior to testing. Hyperalgesia was induced in the rat by the subplantar injection of 1 ug PAF in physiological saline. Pain threshold was measured by applying pressure to the plantar surface of the hindpaw by means of a compressed air driven piston with a 2 mm tip. Vocalization thresholds were obtained 3 hr after injection of the PAF. Compounds, prepared at various doses in 1% methylcellulose suspension, were administered perorally 30 min before PAF. For each drug treatment group, animals with response pressures in the inflamed paw of 200% of control was considered to be analgesic. The mean vocalization threshold for each group was also calculated.

[1] = target: T1, RBL-1 cell 5-lipoxygenase (Rattus norvegicus, UniProt P12527); assay: Inhibition of RBL-1 Cell 5-Lipoxygenase (5-HETE formation); type: biochemical; conditions: read-out: Percent Inhibition
T1 construct: measured in vitro against the RBL-1 cell 5-lipoxygenase; endogenous in cells; host or cells: RBL-1 cells
T1 sequence (P12527 1-673): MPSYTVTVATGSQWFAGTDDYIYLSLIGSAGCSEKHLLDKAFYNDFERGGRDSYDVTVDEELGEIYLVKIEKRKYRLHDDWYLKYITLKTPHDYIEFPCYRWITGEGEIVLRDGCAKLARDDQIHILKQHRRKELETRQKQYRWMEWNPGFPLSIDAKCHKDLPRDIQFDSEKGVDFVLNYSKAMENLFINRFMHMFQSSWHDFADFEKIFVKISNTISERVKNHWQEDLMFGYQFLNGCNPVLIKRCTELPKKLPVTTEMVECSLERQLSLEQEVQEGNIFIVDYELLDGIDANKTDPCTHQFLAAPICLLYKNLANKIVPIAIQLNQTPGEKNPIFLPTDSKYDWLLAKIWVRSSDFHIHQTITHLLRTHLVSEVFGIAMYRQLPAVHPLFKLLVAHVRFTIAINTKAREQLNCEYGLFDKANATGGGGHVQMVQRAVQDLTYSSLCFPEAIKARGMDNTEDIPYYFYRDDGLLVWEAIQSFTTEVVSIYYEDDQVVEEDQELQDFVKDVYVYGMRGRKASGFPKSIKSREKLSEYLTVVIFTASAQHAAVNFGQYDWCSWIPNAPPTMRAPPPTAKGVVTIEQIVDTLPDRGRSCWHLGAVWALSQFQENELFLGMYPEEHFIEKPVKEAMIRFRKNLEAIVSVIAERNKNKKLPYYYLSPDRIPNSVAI
Procedure: The ability of the compound of Formula I, e.g., Compound A, to inhibit leukotriene biosynthesis was also measured in vitro against the RBL-1 cell 5-lipoxygenase. The protocol for measuring inhibition of 5-HETE formation has been published in R. W. Egan et al., "Advances in Prostaglandin, Thromboxane, and leukotriene Research", Vol. 11 (edited by B. Samuelsson et al., Raven Press, N.Y., 1983), p. 151.

[2] = tested on: microsomal ram vesicular gland cyclooxygenase; assay: Inhibition of microsomal ram vesicular gland cyclooxygenase; type: biochemical
Excerpt: The protocol for measuring inhibition of this prostaglandin-producing enzyme has been published.

[3] = Rattus norvegicus, Platelet, po, 3 h, Table 2, 30 mg/kg p.o., read-out: % Rats Exhibiting Analgesia
[4] = Rattus norvegicus, po, 3 h, read-out: % Rats Exhibiting Analgesia

## CSc1ccc2sc(C(=O)Nc3cccc(Cl)c3)c(O)c2c1 [Compound A, --N--(3chlorophenyl)-3-hydroxy-5-(methylthio)benzo[b]thiophene2-carbxamide]
PAF-induced hyperalgesia; [3]
  responders at 30 mg/kg: 90%
PAF-induced hyperalgesia; 30 mg/kg p.o.
  % Analgesia (percentage of animals with vocalization threshold greater than 200 of vehicle-treated controls): 90%
[1]; 0.5 ug/ml
  inhibition at 0.5 µg/mL: 48%
[1]; 1 ug/ml
  inhibition at 1 µg/mL: 58%
[1]; 2 ug/ml
  inhibition at 2 µg/mL: 74%
[1]; 10 ug/ml
  inhibition at 10 µg/mL: 83%
[2]
  Percent Inhibition: 95%

## COc1ccc2cc([C@H](C)C(=O)O)ccc2c1 [Naproxen]
PAF-induced hyperalgesia; [4]
  responders at 30 mg/kg: 10%

## CC1=C(CC(=O)O)c2cc(F)ccc2/C1=C\c1ccc([S+](C)[O-])cc1 (centres unmarked) [Sulindac]
PAF-induced hyperalgesia; [3]
  responders at 30 mg/kg: 10%

## CC(=O)Oc1ccccc1C(=O)O [Aspirin]
PAF-induced hyperalgesia; [4]
  responders at 100 mg/kg: 10%

## CC(C(=O)O)c1ccc2oc(-c3ccc(Cl)cc3)nc2c1 (centres unmarked) [Benoxaprofen]
PAF-induced hyperalgesia; [3]
  responders at 30 mg/kg: 10%
PAF-induced hyperalgesia
  effect in the PAF-induced hyperalgesia assay (in words): completely ineffective

## CN1C(C(=O)Nc2ccccn2)=C(O)c2ccccc2S1(=O)=O [Piroxicam]
PAF-induced hyperalgesia; [3]
  responders at 30 mg/kg: 0%
PAF-induced hyperalgesia
  effect in the PAF-induced hyperalgesia assay (in words): completely ineffective

## COc1ccc2c(c1)c(CC(=O)O)c(C)n2C(=O)c1ccc(Cl)cc1 [Indomethacin]
PAF-induced hyperalgesia; [4]
  responders at 10 mg/kg: 10%
PAF-induced hyperalgesia
  effect in the PAF-induced hyperalgesia assay (in words): completely ineffective

## O=C(O)c1cc(-c2ccc(F)cc2F)ccc1O [Diflunisal]
PAF-induced hyperalgesia; [3]
  responders at 30 mg/kg: 10%

## CSc1ccc2sc(C(=O)NCc3ccccc3)c(O)c2c1 [Compound B, 3Hydroxy-5-(methylthio)---N--(phenylmethyl)benzo[b]thiophene2-carboxmide]
PAF-induced hyperalgesia; 30 mg/kg p.o.
  % Analgesia (percentage of animals with vocalization threshold greater than 200 of vehicle-treated controls): 80%

## CC(C)Cc1ccc(C(C)C(=O)O)cc1 (centres unmarked) [Ibuprofen]
PAF-induced hyperalgesia; [3]
  responders at 30 mg/kg: 10%
PAF-induced hyperalgesia
  effect in the PAF-induced hyperalgesia assay (in words): completely ineffective
